Reference: ChEMBL document CHEMBL2331487, “Synthesis and antiplasmodial and antimycobacterial evaluation of new nitroimidazole and nitroimidazooxazine derivatives” (ACS Med Chem Lett, 2013)
Values after ≈ are worked out from the molar mass of the structure shown.

Legend:
[1] = system: Mycobacterium tuberculosis; assay: Antimycobacterial activity Mycobacterium tuberculosis H37Rv assessed as growth inhibition measured at day 7 by broth microdilution method; format: functional; settings: 168 h
L6 = assay: Cytotoxicity against rat L6 cells after 72 hrs by fluorometric analysis; format: cell-based; settings: L6, 72 h
[2] = Selectivity index, ratio of IC50 for rat L6 cells to IC50 for Plasmodium falciparum K1 by [3H] hypoxanthine uptake inhibition assay; format: toxicity, cell-based; settings: rat L6 cells versus Plasmodium falciparum K1, read-out: Ratio IC50
Plasmodium falciparum = assay: Antimalarial activity against Plasmodium falciparum K1 assessed as inhibition of [3H] hypoxanthine uptake by liquid scintillation counting; format: functional, organism-based

Compound	MIC99 [1] [µM]	IC50 (L6) [µM]	selectivity ratio [2]	IC50 (Plasmodium falciparum) [µM]
NC[C@H]1O[C@H](O[C@H]2[C@H](O)[C@@H](O[C@H]3O[C@H](CO)[C@@H](O)[C@H](N)[C@H]3O)[C@H](N)C[C@@H]2N)[C@H](O)[C@@H](O)[C@@H]1O [KANAMYCIN]	5.4 (≈ 2.62 µg/mL)	–	–	–
COc1cc([C@@H]2c3cc4c(cc3[C@H](O)[C@H]3COC(=O)[C@H]23)OCO4)cc(OC)c1OC [PODOFILOX]	–	0.0193	–	–
CN[C@@H]1[C@H](O[C@H]2[C@H](O[C@H]3[C@H](O)[C@@H](O)[C@H](N=C(N)N)[C@@H](O)[C@@H]3N=C(N)N)O[C@@H](C)[C@]2(O)C=O)O[C@@H](CO)[C@H](O)[C@H]1O [STREPTOMYCIN]	0.27 (≈ 0.157 µg/mL)	–	–	–
CCN(CC)CCCC(C)Nc1ccnc2cc(Cl)ccc12 (centres undefined) [CHLOROQUINE]	> 160	–	–	–
CC(C)(C)n1nnnc1C(NCCCNc1ccnc2cc(Cl)ccc12)c1ccc(CO[C@@H]2COc3nc([N+](=O)[O-])cn3C2)cc1 (some centres undefined)	–	41.5	85	0.485
COc1cc(NC(C)CCCNC(c2ccc(CO[C@@H]3COc4nc([N+](=O)[O-])cn4C3)cc2)c2nnnn2C(C)(C)C)c2ncccc2c1 (some centres undefined)	0.625 (≈ 0.419 µg/mL)	75.9	37	2.04
O=Cc1cccc(CO[C@@H]2COc3nc([N+](=O)[O-])cn3C2)c1	0.625 (≈ 0.19 µg/mL)	34.3	0.54	62.6
CC(C)(C)n1nnnc1C(NCCNc1ccnc2cc(Cl)ccc12)c1ccc(CO[C@@H]2COc3nc([N+](=O)[O-])cn3C2)cc1 (some centres undefined)	0.313 (≈ 0.198 µg/mL)	24.6	246	0.1
CN(C)C(c1ccc(CO[C@@H]2COc3nc([N+](=O)[O-])cn3C2)cc1)c1nnnn1C(C)(C)C (some centres undefined)	0.625 (≈ 0.285 µg/mL)	177	11.2	15.8
OCCCNc1ccnc2cc(Cl)ccc12	> 160	178	164	1.09
COc1cc(NC(C)CCCNC(c2cccc(CO[C@@H]3COc4nc([N+](=O)[O-])cn4C3)c2)c2nnnn2C(C)(C)C)c2ncccc2c1 (some centres undefined)	5 (≈ 3.35 µg/mL)	143	145	0.985
CN(CCO)CCNc1ccnc2cc(Cl)ccc12	> 160	77.6	995	0.078
O=[N+]([O-])c1cn2c(n1)OC[C@@H](OCCCNc1ccnc3cc(Cl)ccc13)C2	1.25 (≈ 0.505 µg/mL)	134	12.8	10.5
CC(C)(C)n1nnnc1C(NCCCCNc1ccnc2cc(Cl)ccc12)c1ccc(CO[C@@H]2COc3nc([N+](=O)[O-])cn3C2)cc1 (some centres undefined)	0.625 (≈ 0.413 µg/mL)	29.3	175	0.164
O=Cc1ccc(CO[C@@H]2COc3nc([N+](=O)[O-])cn3C2)cc1	0.25 (≈ 0.0758 µg/mL)	–	–	–
NCCNc1ccnc2cc(Cl)ccc12	> 160	21.2	71.2	0.298
CCN(CC)C(c1ccc(CO[C@@H]2COc3nc([N+](=O)[O-])cn3C2)cc1)c1nnnn1C(C)(C)C (some centres undefined)	0.313 (≈ 0.152 µg/mL)	113	14.2	7.95
COc1cc(NC(C)CCCN)c2ncccc2c1 (centres undefined) [PRIMAQUINE]	80 (≈ 20.7 µg/mL)	–	–	0.643
CC(C)(C)n1nnnc1C(c1ccc(CO[C@@H]2COc3nc([N+](=O)[O-])cn3C2)cc1)N1CCCC1 (some centres undefined)	0.313 (≈ 0.151 µg/mL)	75.2	8.65	8.7
OCCNc1ccnc2cc(Cl)ccc12	> 160	233	159	1.47
O=[N+]([O-])c1cn2c(n1)OC[C@@H](O)C2	40 (≈ 7.41 µg/mL)	331	–	> 270
CN(CCO)CCCNc1ccnc2cc(Cl)ccc12	> 160	24.8	63	0.391
